# Results as given in paper PMC8456496 (2021).
# Legend:
# Assay in all cases: fluorescence light-switch
# [1] = system: poly AT (DNA, duplex) ATATATATATATATATATAT; conditions: 50 mM NaCl, 10 μM complex, 50 μM bp DNA
# [2] = system: poly A poly T (DNA, duplex) AAAAAAAAAAAAAAAAAAAAA/TTTTTTTTTTTTTTTTTTTTT; conditions: 50 mM NaCl; 5 mM Tris-HCl pH 7.0, 1% DMSO, RT; 10 μM complex, 50 μM bp DNA; emission near 600 nm
# [3] = system: poly T (DNA, single strand) TTTTTTTTTTTTTTTTTTTTT; conditions: 50 mM NaCl; 5 mM Tris-HCl pH 7.0, 1% DMSO, RT; 10 μM complex, 50 μM DNA; emission near 600 nm
smiles,measurement,setting,value
CN(C)Cc1[c-]cccc1.[Pt+2].c1ccc2cc3nc4c5cccnc5c5ncccc5c4nc3cc2c1,binding,"[1]; 5 mM Tris-HCl pH 7.0, 1% DMSO, RT, excimer emission at 599 nm",yes
same,binding,[2],yes
same,binding,[3],yes
CN(C)Cc1[c-]cccc1.[Pt+2].c1ccc2nc3c4cccnc4c4ncccc4c3nc2c1,binding,"[1]; 5 mM Tris-HCl pH 7.0, RT, emission at 431 nm",yes
CN(C)Cc1[c-]cccc1.[Pt+2].c1cnc2c(c1)c1nccnc1c1cccnc12,binding,"[1]; 5 mM Tris-HCl pH 7.0, RT, emission at 438 nm",yes
